{"source": "patent US20250186461A1", "about": "“METHODS AND COMPOSITIONS FOR TREATING AND/OR PREVENTING HERNIAS” (Northwestern University, priority 2023, published 2025)", "key": {"Arom^hum mice [1]": {"system": "Arom^hum mice", "assay": "Hernia prevention in Arom^hum mice (treatment before hernia formation)", "format": "in vivo, mouse", "details": "male Arom^hum mice; 12-week treatment started at 3-3.5 weeks of age (before hernia formation); vs placebo", "description": "Our study design is robust, utilizing Arom^hum mice with endpoints examined after treatment with placebo or anti-P4/PGR, and compared to those of WT littermates using 2 different tissue sites: UAM and LAM (normal or weakened/herniated). Inguinal hernia affects predominantly men vs. women (10:1 ratio). Inguinal hernias are unique to male mice and aged men. […] Here, we will focus on the effects of P4/PGR action on skeletal muscle integrity and hernia formation in males, and our work will be carried out in male mice or tissues primarily from men over 50 years of age. We will use mouse or human tissues or primary cells to closely recapitulate in vivo pathology.\n(§1) The mouse scrotum is connected to the peritoneal cavity with a narrow funicular (or inguinal) canal, with walls composed of LAM tissue. Structurally normal LAM tissue is essential to maintain the tone of this canal and prevent herniation of the bowel.\nExperiment 1a1: Does the addition of P4 to E2 treatment accelerate LAM fibrosis and hernia formation in WT mice? […] We hypothesize that this effect is primarily mediated by the E2 induction of PGR expression in LAM fibroblasts. […] If this were true, the addition of pharmacologic quantities of P4 (75 mg/pellet for 12-week release)^73 to E2 (0.3 mg/pellet for 12-week release)^23-25 in WT mice should accelerate this phenotype. […] See Statistical Methods above for sample size calculation. Hernia surface area will be measured using a digital caliper and calculated as previously described (length×width)^19. At the designated endpoints, LAM and UAM (control) from each mouse will be resected, with one-half of the tissue snap-frozen in liquid nitrogen, and the other half fixed in 4% phosphate-buffered paraformaldehyde for histological and IHC analyses (see below). All tissue and serum (for P4/E2 levels) samples will be collected between 10:00 AM and noon to avoid possible variability in daily hormone fluctuations. […] We will continue to complete the rest of the proposed study in this subaim. We will also assess whether and extent of muscle fibrosis and atrophy will be induced in P4+E2-induced large hernias and E2-induced small hernias. […] P4 antagonists show various levels of selectivity for PGR. […] The use of 3 distinct P4/PGR antagonists with different properties will establish the role of PGR in muscle fibrosis and hernia.\nHernias will be classified as small, medium, or large if the bulging area through muscle tissue is 125-175 mm^2, 175-225 mm^2, or >225 mm^2, respectively. […] We will assess whether muscle fibrosis, atrophy, and hernia are arrested or reversed. […] Hernia size will be measured. After completion of treatment, the mice will be dissected, and LAM, UAM (control), and serum will be collected. A total of 100 mg of tissue (LAM and UAM) will be obtained and frozen for measurement of tissue E2/P4."}, "WT mice": {"system": "WT mice", "assay": "E2/P4-induced hernia formation in WT mice", "format": "in vivo, mouse", "details": "WT male mice", "description": "as §1, with “All placebo-treated Arom^hum mice developed hernias starting from 5 weeks of age. None of the WT littermates developed hernias. […] The” for “The”\nExperiment 1a1: Does the addition of P4 to E2 treatment accelerate LAM fibrosis and hernia formation in WT mice? It was shown that treatment of male WT mice with extremely high doses of systemic estrogens starting around or after the onset of puberty caused inguinal hernia in one third to half of these animals^23-25. We hypothesize that this effect is primarily mediated by the E2 induction of PGR expression in LAM fibroblasts. Male mice have readily detectable P4 levels in the circulation and LAM tissue to activate PGR in LAM fibroblasts (FIG. 6). If this were true, the addition of pharmacologic quantities of P4 (75 mg/pellet for 12-week release)^73 to E2 (0.3 mg/pellet for 12-week release)^23-25 in WT mice should accelerate this phenotype. Our ongoing preliminary study, whereby a 6-week treatment with P4+E2 induced large inguinal hernia in all WT mice (FIG. 7A), supports the following experiment. Long-term (8 weeks or longer) treatment with E2 only is anticipated to cause hernias in up to half of WT mice based on previous findings^23-25. We will determine whether P4+E2 treatment over 12 weeks will give rise to larger hernias in a higher number of mice compared with E2-only treatment. […] See Statistical Methods above for sample size calculation. Hernia surface area will be measured using a digital caliper and calculated as previously described (length×width)^19. At the designated endpoints, LAM and UAM (control) from each mouse will be resected, with one-half of the tissue snap-frozen in liquid nitrogen, and the other half fixed in 4% phosphate-buffered paraformaldehyde for histological and IHC analyses (see below). […]"}, "[2]": {"system": "PGR expression in LAM fibroblasts of Arom^hum mice", "assay": "E2/ESR1-induced PGR expression (mRNA, immunoblotting) in LAM fibroblasts", "format": "cell-based, mouse", "details": "for E2-induced expression of Pgr (mRNA): 100 nM ICI 182,780 or 10 μM MPP, pretreated 2 h, E2 10 nM", "method": "(A) Time course of E2 (10 nM) effect on PGR protein expression in LAM fibroblasts of Arom^hum mice. […] (E) PGR protein levels in LAM primary fibroblasts from WT and Arom^hum mice after treatment with ICI with or without E2 for 48 h. Cells were pretreated with ICI or MPP for 2 h before adding E2. Data are representative of 3 independent experiments; B-actin serves as a loading control for (A) and (E). Vch: vehicle. […] MPP: A selective ESR1 antagonist.\nBreast cancer cell line T47D served as a positive control."}, "Arom^hum mice [3]": {"system": "Arom^hum mice", "details": "earlier work of the applicant (refs 19, 22); cited from earlier work"}, "Arom^hum mice [4]": {"system": "Arom^hum mice", "assay": "Reversal of existing (large) hernias in Arom^hum mice", "format": "in vivo, mouse", "details": "Arom^hum mice with large hernias; 3.75 mg/pellet, 12-week subcutaneous release; n=10-11", "description": "Arrows in panels B and D point to hernias.\nThe scrotal area in WT mice is under ˜125 mm^2. We classified hernias as small, medium, or large based on the bulging area through muscle tissue of 125-175 mm^2, 175-225 mm^2, or ≥225 mm^2, respectively. […] Since long-term anti-E2/ESR1 treatments cause significant side effects (e.g., sexual dysfunction or osteoporosis), we mechanistically explored the specific and major downstream effectors of E2/ESR1 signaling leading to muscle fibrosis. […] The key observations that support the role of P4/PGR signaling are summarized below."}, "Arom^hum mice [5]": {"system": "Arom^hum mice", "details": "previously shown (ref 19); cited from earlier work"}}, "note": "Entries after “also recorded” stand apart in the source; their conditions may differ."}
{"compound": "C[C@]12CCC(=O)C[C@@H]1CC[C@@H]1[C@@H]2CC[C@]2(C)[C@@H](O)CC[C@@H]12", "note": "[DHT]", "values": [{"measurement": "hernia formation / hernia size", "setting": "Arom^hum mice [1]", "result": "None prevented hernia formation"}]}
{"compound": "C[C@]12CC[C@@H]3c4ccc(O)cc4CC[C@H]3[C@@H]1CC[C@@H]2O", "note": "[E2, Estradiol]", "values": [{"measurement": "hernia size induced", "setting": "WT mice; treatment started at the age of 9 weeks", "result": "125-175 mm2"}]}
{"compound": "Cc1cc(-c2ncc(CC(=O)Nc3ccc(-c4cnccn4)cn3)cc2C)ccn1", "note": "[LGK974]", "values": [{"measurement": "hernia formation / hernia size", "setting": "Arom^hum mice [1]", "result": "None prevented hernia formation"}]}
{"compound": "Cc1c(-c2ccc(O)cc2)nn(-c2ccc(O)cc2)c1-c1ccc(OCCN2CCCCC2)cc1", "note": "[MPP]", "values": [{"measurement": "E2-induced expression of Pgr (mRNA)", "setting": "[2]", "result": "significantly decreased E2-induced expression of Pgr"}]}
{"compound": "CC(=O)[C@H]1CC[C@H]2[C@@H]3CCC4=CC(=O)CC[C@]4(C)[C@H]3CC[C@]12C", "note": "[P4, Progesterone]", "values": [{"measurement": "hernia formation", "setting": "WT mice; treatment started at 9-10 weeks of age, up to 12 weeks", "result": "did not induce any hernia formation"}]}
{"compound": "C[C@]12CC[C@@H]3c4ccc(O)cc4C[C@@H](CCCCCCCCC[S+]([O-])CCCC(F)(F)C(F)(F)F)[C@H]3[C@@H]1CC[C@@H]2O", "note": "(some centres unmarked) [fulvestrant]", "values": [{"measurement": "E2-induced expression of Pgr (mRNA)", "setting": "[2]", "result": "significantly decreased E2-induced expression of Pgr"}, {"measurement": "protein levels of 3 PGR isoforms (immunoblotting)", "setting": "[2]; LAM fibroblasts of WT and Arom^hum mice, ICI with or without E2 for 48 h", "result": "blocked"}, {"measurement": "reversal of existing hernias", "setting": "Arom^hum mice [3]", "result": "reversed existing hernias and restored normal anatomy in Arom^hum mice"}, {"measurement": "reversal of large hernias, LAM fibrosis and muscle atrophy", "setting": "Arom^hum mice [4]", "result": "reversed large hernias and restored normal anatomy and reversed LAM tissue fibrosis and muscle atrophy; also recorded: successfully reversed them to normal size, rescued LAM fibrosis, reversed muscle atrophy, and restored normal anatomy"}]}
{"compound": "N#Cc1ccc(C(c2ccc(C#N)cc2)n2cncn2)cc1", "note": "[letrozole, Letrozole]", "values": [{"measurement": "reversal of existing hernias", "setting": "Arom^hum mice [3]", "result": "reversed existing hernias and restored normal anatomy in Arom^hum mice"}, {"measurement": "prevention of LAM fibrosis and hernia formation", "setting": "Arom^hum mice [5]", "result": "entirely prevents this phenotype"}]}
